Source: the supplement of paper PMC11451515

System: P12-Ichikawa
Experiment: cell viability relative to DMSO control; higher = less cytotoxic
Conditions: 48 h
Method in brief: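 NOMO1 or SEM (500 cells/well) or P12-Ichikawa (1000 cells/well) leukemia cells were adapted for at least four passages in each medium. They were seeded in 1536-well plates (5 μl) and pin-dosed with library compounds in DMSO over an 11-point threefold series, 47 μM to 0.79 nM. CellTiter-Glo One luminescence was read after 48 h at 37°C. Viability is the per-plate percentage relative to DMSO wells, with cell-free wells as background.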

[1] = HPLM + 10% dialyzed FBS, 0.000781 µM
[2] = HPLM + 10% dialyzed FBS, 0.00234 µM
[3] = HPLM + 10% dialyzed FBS, 0.00702 µM
[4] = HPLM + 10% dialyzed FBS, 0.0211 µM
[5] = HPLM + 10% dialyzed FBS, 0.0632 µM
[6] = HPLM + 10% dialyzed FBS, 0.19 µM
[7] = HPLM + 10% dialyzed FBS, 0.569 µM
[8] = HPLM + 10% dialyzed FBS, 1.71 µM
[9] = HPLM + 10% dialyzed FBS, 5.12 µM
[10] = HPLM + 10% dialyzed FBS, 15.4 µM
[11] = HPLM + 10% dialyzed FBS, 46.1 µM
[12] = RPMI 5 mM glucose + 10% FBS, 0.000781 µM
[13] = RPMI 5 mM glucose + 10% FBS, 0.00234 µM
[14] = RPMI 5 mM glucose + 10% FBS, 0.00702 µM
[15] = RPMI 5 mM glucose + 10% FBS, 0.0211 µM
[16] = RPMI 5 mM glucose + 10% FBS, 0.0632 µM
[17] = RPMI 5 mM glucose + 10% FBS, 0.19 µM
[18] = RPMI 5 mM glucose + 10% FBS, 0.569 µM
[19] = RPMI 5 mM glucose + 10% FBS, 1.71 µM
[20] = RPMI 5 mM glucose + 10% FBS, 5.12 µM
[21] = RPMI 5 mM glucose + 10% FBS, 15.4 µM
[22] = RPMI 5 mM glucose + 10% FBS, 46.1 µM
[23] = RPMI 5 mM glucose + 10% dialyzed FBS, 0.000781 µM
[24] = RPMI 5 mM glucose + 10% dialyzed FBS, 0.00234 µM
[25] = RPMI 5 mM glucose + 10% dialyzed FBS, 0.00702 µM
[26] = RPMI 5 mM glucose + 10% dialyzed FBS, 0.0211 µM
[27] = RPMI 5 mM glucose + 10% dialyzed FBS, 0.0632 µM
[28] = RPMI 5 mM glucose + 10% dialyzed FBS, 0.19 µM
[29] = RPMI 5 mM glucose + 10% dialyzed FBS, 0.569 µM
[30] = RPMI 5 mM glucose + 10% dialyzed FBS, 1.71 µM
[31] = RPMI 5 mM glucose + 10% dialyzed FBS, 5.12 µM
[32] = RPMI 5 mM glucose + 10% dialyzed FBS, 15.4 µM
[33] = RPMI 5 mM glucose + 10% dialyzed FBS, 46.1 µM

| Structure (SMILES) | cell viability [1] | cell viability [2] | cell viability [3] | cell viability [4] | cell viability [5] | cell viability [6] | cell viability [7] | cell viability [8] | cell viability [9] | cell viability [10] | cell viability [11] | cell viability [12] | cell viability [13] | cell viability [14] | cell viability [15] | cell viability [16] | cell viability [17] | cell viability [18] | cell viability [19] | cell viability [20] | cell viability [21] | cell viability [22] | cell viability [23] | cell viability [24] | cell viability [25] | cell viability [26] | cell viability [27] | cell viability [28] | cell viability [29] | cell viability [30] | cell viability [31] | cell viability [32] | cell viability [33] |
| --- | --- | --- | --- | --- | --- | --- | --- | --- | --- | --- | --- | --- | --- | --- | --- | --- | --- | --- | --- | --- | --- | --- | --- | --- | --- | --- | --- | --- | --- | --- | --- | --- | --- |
| N#Cc1c(C2CCNCC2)cc(-c2c(O)cccc2OCC2CC2)nc1N | 113% | 113% | 112% | 110% | 108% | 108% | 106% | 107% | 101% | 106% | 92% | 116% | 125% | 123% | 117% | 109% | 97.2% | 108% | 105% | 105% | 106% | 91.3% | 114% | 116% | 119% | 126% | 105% | 114% | 111% | 107% | 107% | 99.7% | 85.9% |
| CCC1=C(C)CN(C(=O)NCCc2ccc(S(=O)(=O)NC(=O)N[C@H]3CC[C@H](C)CC3)cc2)C1=O | 94.6% | 102% | 98.9% | 104% | 107% | 104% | 102% | 105% | 97.7% | 109% | 109% | 89.5% | 101% | 95.5% | 92.9% | 95.3% | 111% | 107% | 101% | 87.3% | 113% | 115% | 90.7% | 86% | 90.7% | 92.5% | 103% | 104% | 98.5% | 98.8% | 94.8% | 104% | 108% |
| CCOc1cc2c(c(F)c1OCC)C(=N)N(CC(=O)c1cc(N3CCOCC3)c(OC)c(C(C)(C)C)c1)C2 | 104% | 105% | 107% | 114% | 112% | 111% | 115% | 115% | 116% | 118% | 100% | 110% | 124% | 128% | 118% | 126% | 132% | 128% | 127% | 124% | 131% | 108% | 108% | 114% | 111% | 118% | 125% | 117% | 119% | 117% | 113% | 120% | 105% |
| COC1=CC=C(C=C1)C/2=C/OC3=CC(=CC=C3C2=O)O | 122% | 116% | 114% | 112% | 124% | 111% | 115% | 102% | 106% | 104% | 96.7% | 120% | 120% | 115% | 120% | 121% | 112% | 118% | 111% | 113% | 114% | 103% | 116% | 111% | 115% | 118% | 108% | 105% | 117% | 104% | 108% | 96.2% | 101% |
| Clc1ccc(COC(Cn2ccnc2)c2ccc(Cl)cc2Cl)cc1 (stereo unspecified) | 110% | 109% | 115% | 117% | 124% | 121% | 120% | 117% | 114% | 116% | 106% | 116% | 117% | 114% | 126% | 129% | 123% | 121% | 130% | 126% | 104% | 91.3% | 108% | 114% | 123% | 113% | 124% | 124% | 120% | 107% | 103% | 96.8% | 85.7% |
| Cc1c(OCC(F)(F)F)ccnc1C[S+]([O-])c1nc2ccccc2[nH]1 (stereo unspecified) | 99.9% | 111% | 109% | 105% | 108% | 113% | 113% | 112% | 118% | 112% | 107% | 99% | 100% | 98.2% | 94% | 106% | 115% | 108% | 112% | 114% | 101% | 102% | 102% | 102% | 102% | 111% | 104% | 103% | 110% | 112% | 108% | 111% | 96.2% |
| CCc1cc(/C(C)=N/OCc2ccc(C3CCCCC3)c(C(F)(F)F)c2)ccc1CN1CC(C(=O)O)C1 | 111% | 110% | 112% | 119% | 120% | 114% | 121% | 108% | 105% | 30.3% | 18.9% | 109% | 99% | 105% | 108% | 110% | 106% | 108% | 107% | 94.4% | 22.5% | 18.7% | 111% | 111% | 116% | 109% | 109% | 116% | 114% | 106% | 100% | 20.7% | 18.6% |
| O=C1c2cccc(O)c2C(=O)c2c(O)cc(CO)cc21 | 97.1% | 100% | 99.9% | 98.1% | 92.7% | 91.2% | 95.2% | 92.8% | 91.9% | 90.7% | 93.4% | 89.6% | 90.1% | 93.7% | 98% | 92.3% | 97% | 88.2% | 97.1% | 92.1% | 96.5% | 104% | 91.1% | 92.2% | 91% | 93.4% | 91.8% | 91.5% | 89% | 86.7% | 88% | 88.3% | 91.3% |
| CN(C)c1nc(N(C)C)nc(N(C)C)n1 | 108% | 108% | 104% | 104% | 101% | 103% | 94.4% | 94.3% | 89.6% | 94% | 83.5% | 103% | 100% | 98.3% | 95.9% | 90.5% | 93.9% | 98.8% | 87.2% | 87.9% | 89.9% | 93.2% | 90.3% | 99.9% | 95.5% | 99.6% | 97.1% | 91.6% | 91.9% | 85% | 87.9% | 90.7% | 86.8% |
| COc1ccc2cccc(CCNC(C)=O)c2c1 | 104% | 100% | 102% | 102% | 96% | 103% | 99% | 104% | 102% | 92.7% | 89.6% | 98.3% | 104% | 105% | 109% | 103% | 107% | 104% | 101% | 99.6% | 97.8% | 95.9% | 97.6% | 103% | 110% | 96.8% | 104% | 104% | 97.4% | 93.8% | 94.3% | 98.2% | 89.6% |
| NC\1=N\C(=O)N(\C=N1)[C@H]2C[C@H](O)[C@@H](CO)O2 | 101% | 103% | 106% | 108% | 115% | 108% | 101% | 74.1% | 42% | 34.9% | 32.3% | 105% | 110% | 112% | 118% | 106% | 103% | 97.2% | 70% | 37.6% | 26.5% | 27.5% | 107% | 109% | 103% | 106% | 105% | 107% | 102% | 72.5% | 37.2% | 30.3% | 31.4% |
| CCOP(=O)(OCC)C(C)NC(=O)N(CCCl)N=O (stereo unspecified) | 122% | 116% | 132% | 119% | 124% | 130% | 123% | 123% | 128% | 130% | 141% |  |  |  |  |  |  |  |  |  |  |  |  |  |  |  |  |  |  |  |  |  |  |
| CC(C)(Cc1ccc2ccccc2c1)NC[C@@H](O)COc1cccc(Cl)c1C#N | 123% | 124% | 126% | 122% | 121% | 120% | 123% | 116% | 123% | 117% | 10.7% |  |  |  |  |  |  |  |  |  |  |  |  |  |  |  |  |  |  |  |  |  |  |
| CN[C@@H](C)C(=O)N[C@H]1CCCC[C@H]2CC[C@@H](C(=O)N[C@@H](c3ccccc3)c3cn(CCCCc4ccc(CCCCn5cc([C@@H](NC(=O)[C@@H]6CC[C@@H]7CCCC[C@H](NC(=O)[C@H](C)NC)C(=O)N76)c6ccccc6)nn5)cc4)nn3)N2C1=O | 103% | 101% | 99.3% | 95.4% | 102% | 99.8% | 94.8% | 104% | 96.3% | 96.8% | 94.7% | 98.6% | 104% | 92% | 106% | 92.8% | 99.7% | 115% | 97.9% | 96.2% | 97.1% | 79.9% | 90.8% | 110% | 94.7% | 84.7% | 93% | 101% | 97.3% | 98% | 92.1% | 93.5% | 72.9% |
| CC(=O)SCC(Cc1ccccc1)C(=O)NCC(=O)OCc1ccccc1 (stereo unspecified) | 93.4% | 92.2% | 103% | 104% | 103% | 102% | 105% | 103% | 101% | 66.9% | 8.75% | 105% | 93.6% | 106% | 102% | 99.9% | 98.2% | 101% | 100% | 98.6% | 54% | 59.3% | 85.3% | 91.2% | 96.2% | 94.3% | 104% | 95.5% | 101% | 103% | 90.1% | 34.7% | 50.3% |
